# Reference: patent US6534035B1, “Methods of inhibiting clot formation” (President and Fellows of Harvard College, priority 1998, dated 2003)
# Entries after “also recorded” stand apart in the source; their conditions may differ. Peptide text beside a SMILES is read from it. * marks the point of attachment. Biotin = O=C1N[C@H]2[C@H](CS[C@H]2CCCCC(=O)*)N1
# Experiments:
# FXIIIa = biological target: T1, FXIIIa (Homo sapiens, UniProt P00488); test: FXIIIa catalytic half-life: crosslinking of substrates into fibrin clots of various ages; type: biochemical; conditions: substrate added to 2 or 4 hour old clots
# T1 construct: purchased American Diagnostica
# T1 sequence (P00488 39-732 limits assumed): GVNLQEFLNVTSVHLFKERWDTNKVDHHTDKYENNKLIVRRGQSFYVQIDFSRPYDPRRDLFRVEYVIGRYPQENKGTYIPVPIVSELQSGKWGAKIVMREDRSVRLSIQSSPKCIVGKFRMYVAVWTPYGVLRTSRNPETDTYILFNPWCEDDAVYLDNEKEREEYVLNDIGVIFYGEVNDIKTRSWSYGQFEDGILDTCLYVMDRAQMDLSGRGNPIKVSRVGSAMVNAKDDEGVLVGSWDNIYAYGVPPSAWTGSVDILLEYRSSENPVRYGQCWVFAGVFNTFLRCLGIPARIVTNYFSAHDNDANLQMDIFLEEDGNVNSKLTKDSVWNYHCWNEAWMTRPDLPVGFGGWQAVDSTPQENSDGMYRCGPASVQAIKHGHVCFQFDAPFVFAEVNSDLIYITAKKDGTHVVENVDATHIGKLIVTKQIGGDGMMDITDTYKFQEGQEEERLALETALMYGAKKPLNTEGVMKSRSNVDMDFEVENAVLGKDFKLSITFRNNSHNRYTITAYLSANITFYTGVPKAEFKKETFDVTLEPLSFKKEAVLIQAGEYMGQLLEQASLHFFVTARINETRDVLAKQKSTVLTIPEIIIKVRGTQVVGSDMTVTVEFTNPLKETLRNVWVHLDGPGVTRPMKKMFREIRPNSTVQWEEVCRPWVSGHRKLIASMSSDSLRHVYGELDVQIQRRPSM
# Description: Experiments were performed to determine how long FXIIIa in clots could crosslink various substrates such as human ^125I -α2AP, α2AP13-24 (SEQ ID NO:2), and 5-(biotinamido)pentylamine, into fibrin. In a typical experiment, clots were prepared (50 μl final volume) in duplicate by combining fibrinogen (2 mg/ml final), CaCl2 (2 mM final), buffer (Tris-buffered saline pH 7.4) and thrombin (1 U/ml) and incubating at 37° C. Synchronous with the addition of thrombin, or up to 240 minutes afterwards, the FXIIIa substrates 5-(biotinamido)pentylamine (0.5 mM final), ^125I -α2AP (70 μg/ml final), and α2AP13-24 (0 to 1 mM final) were mixed and added to the clot. In one set of control samples, FXIIIa was inhibited with iodoacetamide (10 mg/ml) prior to the addition of substrate; to another set, no substrate was added. After 2 hours of incubation at 37° C., iodoacetamide (10 mg/ml) was added to stop the reaction. The tubes were then centrifuged at 14,000 rpm for 2 minutes, washed and compressed in 1 ml saline to remove unbound proteins, and centrifuged again at 14,000 rpm for 2 minutes. After removal of the supernatant, the clots were solubilized in 100 μL of 9M urea, pH 9.0 at 37° C. for 60 minutes. Then 100 μl of SDS reducing sample buffer was added and the clots were placed at 85° C. for 30 minutes until fully solubilized. The samples were examined by SDS-PAGE. Crosslinked ^125I-α2AP was detected and quantitated by phosphorimaging. Samples containing crosslinked α2AP13-24 and pentylamine substrates were electroblotted to PVDF membranes and detected by ^125I-streptavidin followed by phosphorimaging or by streptavidin-peroxidase followed by the developing agents 5-bromo-4-chloro-3-indolyl phosphate-nitro blue tetrazolium using methods known in the art. In experiments examining the effect of specific amino acid residues on the crosslinking of the α2AP13-24 peptide (SEQ ID NO:2) to fibrin, crosslinking was detected by immunoblotting with an anti-peptide antibody directed against this epitope followed by ^125I-protein A and phosphorimaging. […]
# human plasma FXIII = biological target: T2, human plasma FXIII (Homo sapiens, UniProt P00488); test: Crosslinking of α2AP13-24 into fibrin by plasma FXIII in FXIII-free fibrinogen; type: biochemical
# T2 construct: purchased American Diagnostica; host or cells: purified from human plasma
# T2 sequence (P00488 39-732 limits assumed): T1 sequence (P00488 39-732 limits assumed)
# Description: Fibrin clots (50 μl) were prepared in duplicate by mixing FXIII-free fibrinogen (2 mg/ml final), α2AP13-24 (SEQ ID NO:2; 0.5 mM final), CaCl2 (2 mM final), human plasma FXIII (100 nM/L final) and guinea pig tissue transglutaminase (100 nM/L final) and thrombin (1 U/ml final) and incubating at 37° C. for 2 hours. The crosslinking of α2AP13-24 was detected as described above.
# pulmonary emboli = test: Crosslinking of α2AP13-24 into pulmonary emboli in vivo; parameters: species or system ferret; conditions: 0.5 mM dose of biotinylated peptide after embolization, 4 hours
# Description: To examine whether FXIIIa which formed thrombi in vivo retained the ability to crosslink substrates, the ferret pulmonary embolism model was used. Clots were formed by combining 45 μl of pooled human fresh frozen plasma with ^125I-labeled fibrinogen (˜100,000 cpm/clot), 2.5 μl of 0.4 M CaCl2, and 2.5 μl thrombin (1000 U/ml). The clots were incubated at 37° C. for 20 minutes, washed three times in saline, and 6 were embolized into the lungs of each animal. Three experimental groups were examined with 2 animals in each group. One group received normal clots and a solution of α2AP13-24 (SEQ ID NO:2) calculated to produce a final peptide concentration of 0.5 mM. Another group also received the same peptide concentration; prior to embolization, the clots in this group were washed in iodoacetamide (10 mg/ml) and EDTA (10 mM final) to inhibit clot associated FXIIIa. The third group received the blood clots but no peptide infusion afterward. Four hours after embolization, the ferrets were sacrificed by CO2 inhalation. The heart, lungs, and great vessels were removed and gamma-counted to locate the pulmonary emboli.
# Lung tissue containing pulmonary emboli was localized with a Geiger counter, excised and weighed. […]
compound,measurement,setting,value
"CC(C)C[C@H](NC(=O)[C@H](CC(C)C)NC(=O)[C@@H](NC(=O)[C@H](CC(C)C)NC(=O)[C@@H]1CCCN1C(=O)[C@H](CO)NC(=O)[C@@H](NC(=O)[C@H](CCC(N)=O)NC(=O)[C@H](CCC(=O)O)NC(=O)[C@H](CCC(N)=O)NC(=O)[C@@H](N)CC(N)=O)C(C)C)[C@@H](C)O)C(=O)N[C@@H](CCCCNC(=O)CCCC[C@@H]1SC[C@@H]2NC(=O)N[C@@H]21)C(=O)O [α2AP13-24, NQEQVSPLTLLK] (H-NQEQVSPLTLLK(Biotin)-OH)",residual FXIIIa crosslinking of substrate,FXIIIa,little residual FXIIIa crosslinking
same,crosslinking of peptide to fibrin,human plasma FXIII; equivalent amount of purified exogenous FXIIIa added to FXIIIa-deficient fibrinogen,significantly more crosslinking
same,crosslinking of peptide to fibrin,"human plasma FXIII; purified FXIIIa-deficient fibrinogen, no enzyme added","little, if any, significant crosslinking"
same,incorporation of peptide into existing pulmonary emboli,pulmonary emboli,specific staining was detected in the thrombus; also recorded: covalently incorporated
